Results reported in ChEMBL document CHEMBL4725273, “Structure-activity relationship study of cytotoxic neolignan derivatives using multivariate analysis and computation-aided drug design” (Bioorg Med Chem Lett, 2020).

Columns and labels:
B16-F10 = test: Cytotoxicity against mouse B16-F10 cells; assay type: functional, cell-based
[1] = Cytotoxicity against human T75 cells; assay type: cell-based
A2058 = test: Cytotoxicity against human A2058 cells; assay type: functional, cell-based
[2] = Selectivity index, ratio for IC50 for human T75 cells to IC50 for human A2058 cells

| Structure (SMILES) | IC50 (B16-F10) [µM] | IC50 [1] [µM] | IC50 (A2058) [µM] | Ratio IC50 [2] |
| --- | --- | --- | --- | --- |
| CCCOc1c(OC)cc(CCC)cc1Oc1ccc(CCC)cc1OC | 79 | > 100 | 52.2 | >1.9 |
| CCCc1ccc(Oc2cc(CCC)cc(OC)c2OC)c(OC)c1 | > 100 | > 100 | > 100 | – |
| C=CCc1ccc(Oc2cc(CC=C)cc(OC)c2Oc2ccccc2)c(OC)c1 | > 100 | > 100 | > 100 | – |
| C=CCc1ccc(Oc2cc(C(=O)C=C)cc(OC)c2OC)c(OC)c1 | > 100 | > 100 | > 100 | – |
| C=CCc1ccc(Oc2cc(C(=O)C=C)cc(OC)c2O)c(OC)c1 | 82.2 | > 100 | 85.3 | >1.2 |
| C=CCc1ccc(Oc2cc(C(O)C=C)cc(OC)c2O)c(OC)c1 (stereo not given) | > 100 | > 100 | > 100 | – |
| COc1cc(C=O)ccc1Oc1cc(C=O)cc(OC)c1OC=O | 80.2 | > 100 | 61.4 | >1.6 |
| COc1cc(CC(C)O)ccc1Oc1cc(CC(C)O)cc(OC)c1OCC(C)O (stereo not given) | > 100 | > 100 | > 100 | – |
| C=CCc1ccc(Oc2cc(C(O)C=C)cc(OC)c2OC)c(OC)c1 (stereo not given) | 90.3 | > 100 | > 100 | – |
| COc1cc(CC(C)=O)ccc1Oc1cc(CC(C)=O)cc(OC)c1OCC(C)=O | > 100 | > 100 | > 100 | – |
| COc1cc(CCCO)ccc1Oc1cc(CCCO)cc(OC)c1OCCCO | > 100 | > 100 | > 100 | – |
| CCCc1ccc(Oc2cc(CCC)cc(OC)c2Oc2ccccc2)c(OC)c1 | > 100 | > 100 | > 100 | – |
| CCC(O)Oc1c(OC)cc(C(O)CC)cc1Oc1ccc(C(O)CC)cc1OC (stereo not given) | > 100 | > 100 | > 100 | – |
| CCCS(=O)(=O)Nc1ccc(F)c(C(=O)c2c[nH]c3ncc(-c4ccc(Cl)cc4)cc23)c1F [VEMURAFENIB] | – | > 100 | 8.7 | >11.5 |
